Measurements reported in US20220288277A1, “SURFACE COATINGS AND IMPLANTABLE DEVICES COMPRISING DIMERIC STEROID PRODRUGS, AND USES THEREOF” (Ripple Therapeutics Corporation, priority 2019, published 2022).

How the values were obtained:
[1] = Ethylene oxide (ETO) gas sterilization of coated fibrous Dacron meshes, purity and drug release pre- and post-ETO; format: physicochemical; conditions: ETO gas at 55° C.
Experimental: Compound 1 coated onto fibrous Dacron meshes were sterilized by ethylene oxide (ETO) gas at a temperature of 55° C. […] Drug release was carried out in PBS at 37 C.

[2] = In vitro drug release profiles from coated discs; format: physicochemical; conditions: coated discs (FIG. 18B)
[3] = system: skin surrounding the injection sites; test: Rat study with spray coated substrates injected into the dorsal subcutaneous space; format: in vivo, male SD rats; conditions: highest coating amount (23.3 μg dexamethasone), day 14
Experimental: Coatings of Compound 1 in various dexamethasone amounts (1.4-23.3 μg) were spray coated onto substrates as described in Example 4 and sterilized by ETO gas. Coated substrates were injected into the dorsal subcutaneous space of male SD rats with starting weights of 100-124 g (Envigo, Frederick, Md. USA). Animals were euthanized at 0, 3, 7 and 14 days and the skin surrounding the injection sites dissected. Coating remaining at each time point was quantified by HPLC.

[4] = system: device related foreign body reaction in the rat subcutaneous model; test: Rat study of coated substrates, morphometric image analysis of CD68 stained cross-sections; format: in vivo, female Wistar rats; conditions: spray coated thin films or drop coated discs, days 3 and 7, compared to non-coated substrates
Experimental: Compound 1 was dissolved in acetone and spray coated onto thin films of a polymeric substrate or drop coated onto discs of a different polymeric substrate. Both coatings were dried at ambient conditions over night and sterilized using Ethylene oxide (ETO) gas. Coated substrates were then implanted into the dorsal subcutaneous space in female Wistar rats with starting weights of 250-290 g. Animals were euthanized at the peak of inflammatory phase in days 3 and 7. The cells in the surrounding area of both substrates were assessed by morphometric image analysis on cross-section of excised substrates with associated tissue that were stained for CD68 (inflammatory cell marker), ASMA (fibroblast marker) and DAPI ([…]). The number of recruited CD68 positive cells were reduced in response to both substrates coated with compound 1 compared to non-coated substrates. Thus, compound 1 suppresses inflammation in device related foreign body reaction and fibrosis in the rat subcutaneous model regardless of coating method or substrate.

[5] = system: device related fibrosis; test: Rat study of coated polymeric discs, collagenous capsule wall thickness (Masson's Trichrome); format: in vivo, female Wistar rats; conditions: drop coated discs, subcutaneous, day 7 and day 21, versus non-coated implants
Description: The coatings were dried at ambient conditions over night and sterilized using Ethylene oxide (ETO) gas. Coated substrates were then implanted into the dorsal subcutaneous space in female Wistar rats with starting weights of 250-290 g. Animals were euthanized at day 7 (inflammatory phase) and day 21 (fibrotic phase) to assess the tissue response to coated versus non-coated implants. The thickness of the collagenous capsule wall surrounding the implant was quantified by morphometric image analysis on cross-section of excised capsules with associated tissue that were stained with Masson's Trichrome.

[6] = Coating retention / drug release from coated substrates in 100% FBS at 37 C, HPLC; format: physicochemical
Experimental: Compound 1 was drop coated with the same total amount of compound 1 from an organic solution (acetone) onto SIBS films, Dacron films, and fibrous Dacron meshes, and drug release was carried out in 100% FBS at 37 C. The coating was extracted from the substrates at different time points and was plotted as a percentage of coating retained over time (FIG. 4).
Substrates coated with Compound 1 by drop coating or spray coating were incubated in fetal bovine serum (FBS) to determine the amount of Compound 1 retained over time. Each coated substrate was placed in a glass vial containing 4 mL FBS and incubated at 37° C. on a rotating platform. After 1 to 4 days, the remaining coating was extracted and was determined by HPLC (FIG. 9). The amount of Compound 1 retained following 1-day incubation in FBS ranged from 15 to 100% of the initial amount loaded and roughly correlated with thickness (total loading) of the coating.
Drug release was carried out in 100% FBS and agitation at 37 C with buffer changes and was monitored by HPLC.

[7] = Drug release profiles of heat press versus spray coated surface coatings; format: physicochemical; conditions: similar drug densities (8.2-8.3 μg/mm^2)
Experimental: Drug release profiles from Compound 1 surface coatings with similar drug densities (8.2-8.3 μg/mm^2) formed from the heat press process and spray coating process were similar (FIG. 16B), confirming that drug release is a material property and not influenced by coating technique.

[8] = Drug release from coated surfaces and extruded cylinders in PBS at 37 C, monitored by HPLC; format: physicochemical
Description: As stated herein, “t50” is the time at which 50% of the releasable drug has been released from a surface coating or drug depot of the disclosure. Time t10 is, correspondingly, the time at which 10% of the releasable drug has been released from a surface coating or drug depot of the disclosure. When the release curve is perfectly linear, t10=⅕ of t50. When there is an initial burst of released drug, t10 is much less than ⅕ of t50. In the compositions and methods of the disclosure t10 can be equal to or greater than 1/10 of t50. Drug release from a surface coating, drug depot, or compound of the disclosure can be measured at 37° C. in 100% bovine serum, or at 37° C. in PBS (phosphate buffered saline), as described in Example 1.
Different substrates including poly(styrene-block-isobutylene-block-styrene) (SIBS) films, titanium coupons, and fibrous Dacron (polyethylene terephthalate) meshes (FIG. 2A) were coated with compound 1 from acetone by drop coating (FIG. 2B) forming an amorphous (glassy) coating. […] The bottom of a glass vial was coated with compound 1 and dexamethasone from dichloromethane (DCM) using the drop coating method.
Compound 2 was dissolved in DCM and was drop coated onto the bottom of a glass vial and solvent was evaporated to form the surface coating. Drug release was carried out in PBS at 37 C with buffer changes and was monitored by HPLC.
Compound 3 was dissolved in DCM and was drop coated onto the bottom of a glass vial and solvent was evaporated to form the surface coating. Drug release was carried out in PBS at 37 C with buffer changes and was monitored by HPLC.
Compound 1 was formed into cylinders by heat extrusion from the intermediate glassy state by pre-melting compound 1 prior to extrusion. In vitro drug release was carried out in PBS at 37 C and drug release was quantified by HPLC. […] The cylinders can be used as a drug depot within a medical device or injected adjacent to the medical device to release dexamethasone.

[9] = Drug release from injectable cylinders in the subcutaneous tissue of rats; format: in vivo, male Sprague Dawley rats; conditions: cylinders 23G-32G, 2 mm, subcutaneous with suture, 7 and 28 days
Experimental: Cylinders of Compound 1 in various diameters (23G-32G) and 2 mm in length were processed as described in Example 1 and were loaded into needles with a piece of medical sutures as shown in FIG. 21A. The loaded needles were sterilized by ethylene oxide gas. The cylinders and sutures were injected into the dorsal subcutaneous space of male Sprague Dawley rats with starting weights of 100-124 g (Envigo, Frederick, Md. USA). Animals were euthanized at 7 and 28 days and the skin surrounding the injection sites were dissected. Pellet drug content at each time point was calculated from in-situ image analysis, confirmed by HPLC, and was plotted as cumulative drug release from the cylinders (FIG. 21C).

C[C@@H]1C[C@H]2[C@@H]3CCC4=CC(=O)C=C[C@]4(C)[C@@]3(F)[C@@H](O)C[C@]2(C)[C@@]1(O)C(=O)COC(=O)OCCOCCOCCOC(=O)OCC(=O)[C@@]1(O)[C@H](C)C[C@H]2[C@@H]3CCC4=CC(=O)C=C[C@]4(C)[C@@]3(F)[C@@H](O)C[C@@]21C [Compound 1, dexamethasone-triethylene glycol-dexamethasone]
Coating purity pre- and post-ETO sterilization ([1]; fibrous Dacron meshes, HPLC): no changes | Drug release pre- and post-ETO sterilization ([1]; release in PBS at 37 C): no changes in release properties | In vitro drug release profile [2]: sustained release | Skin observation around the coated substrate [3]: Skin bleaching was noted | Number of recruited CD68 positive cells [4]: reduced | Capsule wall diameter (fibrotic layer thickness) [5]: statistically thinner | Coating retained over time ([6]; drop coated on SIBS and Dacron films (thicker, lower surface area coating)): lower and longer sustained release | Coating retained over time ([6]; drop coated on fibrous Dacron mesh (thin, high surface area coating)): quick release of coating from the surface | Drug release profiles, heat press process versus spray coating process [7]: similar | Drug release mechanism from extruded cylinders ([8]; cylinders extruded with 23G and 30G nozzles, PBS at 37 C): surface erosion | Drug release from the coated surfaces ([8]; drop coated on SIBS, titanium, Dacron mesh, glass, PBS at 37 C): slow, sustained drug release | Cumulative drug release from the cylinders in vivo [9]: sustained dexamethasone release

dexamethasone-hexane-dexamethasone [Compound 4]
Capsule wall diameter (fibrotic layer thickness) [5]: statistically thinner

hydrocortisone-triethylene glycol-hydrocortisone [Compound 2]
Cumulative drug release from the coated surface ([8]; drop coated from DCM onto glass vial, PBS at 37 C with buffer changes): consistent drug release
